The values below come from article PMC6948153 (ACS chemical biology, 2019).

Entries after “also recorded” stand apart in the source; their conditions may differ. Where two headings read alike, the source gives them in different places.

The target of series [1] is T1, RhlI (Pseudomonas aeruginosa, UniProt P54291). The conditions noted are these: N-butyryl L-homoserine lactone even at 1 mM; ref 21 (Parsek et al.); cited from earlier work.
The target in series [2] is T1, RhlI. Briefly: RhlI enzymatic assay. In kind it is biochemical. Conditions: for effect on RhlI activity (inhibition / activation): initial rate with increasing concentrations of compound.
In series [3] the target is T1, RhlI. Briefly: Inhibition of RhlI by inert alkyl-ACP / alkyl-CoA substrate analogs. Format: biochemical. Conditions: for effect of preincubation of RhlI with inhibitor on % inhibition or IC50: inhibition neither slow-binding nor time-dependent; for inhibition mode: substrate-velocity measurements at different alkyl-ACP concentrations.
The target in the next series is tag-free RhlI (Pseudomonas aeruginosa, UniProt P54291). Briefly: Km and IC50 with tag-free RhlI. In kind it is biochemical.
In series [4] the target is T1, RhlI. Briefly: Substrate kinetics of acyl-ACPs with RhlI. Format: biochemical. Conditions: acyl-ACP substrate with RhlI.
Where [5] appears, read: inert substrate analog with RhlI.

T1 sequence (P54291 whole entry): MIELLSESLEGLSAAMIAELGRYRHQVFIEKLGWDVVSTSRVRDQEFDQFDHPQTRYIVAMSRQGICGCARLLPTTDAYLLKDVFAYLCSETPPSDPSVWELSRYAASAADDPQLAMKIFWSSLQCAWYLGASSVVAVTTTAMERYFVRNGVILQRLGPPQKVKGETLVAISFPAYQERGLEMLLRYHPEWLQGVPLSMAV
Sequence of tag-free RhlI (P54291 whole entry): as above

Turning to `CSC[C@H]1O[C@@H](n2cnc3c(N)ncnc32)[C@H](O)[C@@H]1O` [MTA], the “inhibition of RhlI” value at RhlI [1] is recorded as “weak inhibitors”.
`CCCC(=O)N[C@H]1CCOC1=O` [compound 1, N-butyryl-L-homoserine lactone]: the “effect on RhlI activity (inhibition / activation)” value (shortened to “effect … (inhibition / activation)”) on RhlI [2] is recorded as “did not inhibit”. Moreover, on RhlI [1], the “inhibition of RhlI” value is reported as “no inhibition”.
For the compound `CCCC(=O)N[C@@H]1CCOC1=O` [compound 5, C4-D-HSL], on RhlI [2], half-maximal inhibition (IC50) required 688 ± 91 µM and the “effect … (inhibition / activation)” value is recorded as “decreased the rate”.
As to `CCCC(=O)N[C@H]1CCSC1=O` [compound 8, C4-L-HCTL], the “effect … (inhibition / activation)” value at RhlI [2] is reported as “failed to inhibit; also recorded: did not inhibit”.
Consider `O=C(CCCc1ccccc1)N[C@@H]1CCOC1=O` [compound 31, 4-phenylbutanoyl-D-HSL], for which the IC50 at RhlI [2] stood at 20 ± 10 µM.
The compound `CCCC(=O)CC(=O)N[C@@H]1CCOC1=O` [compound 34, 3-oxoC6-D-HSL] had an EC50 on RhlI [2] of 224 ± 55 µM.
At RhlI [2], `CCCCCC(=O)CC(=O)N[C@@H]1CCOC1=O` [compound 35, 3-oxoC8-D-HSL] gave an IC50 of 282 ± 34 µM.
Same read-out and setting: the figure for `CCCCCCCCCCCC(=O)N[C@H]1CCSC1=O` [compound 46, C12-L-HCTL] is 387 ± 89 µM; for `CCCCCCCCCC(=O)CC(=O)N[C@H]1CCSC1=O` [compound 55, 3-oxoC12-L-HCTL] it is 621 ± 50 µM.
At RhlI [2], `CCCCCCCCCCCC(=O)N[C@@H]1CCSC1=O` [compound 60, C12-D-homocysteine thiolactone] returned an IC50 of 11 ± 1 µM. Moreover, the “fold lower IC50 than L-thiolactone counterpart compound 46” value at RhlI [2] (IC50 of 60 versus IC50 of 46) is “about 34 fold”.
As to `CCCC(=O)CC(=O)N[C@@H]1CCSC1=O` [compound 61, 3-oxoC6-D-HCTL], on RhlI [2], it took 1510 ± 110 µM to reach a half-maximal effect (EC50) and the “effect … (inhibition / activation)” value was “activated”.
The corresponding values for `CCCCCC(=O)CC(=O)N[C@@H]1CCSC1=O` [compound 62, 3-oxoC8-D-HCTL] are 855 ± 74 µM and “activated”.
As for `CCCCCCCC(=O)CC(=O)N[C@@H]1CCSC1=O` [compound 63, 3-oxoC10-D-HCTL], on RhlI [2], the midpoint of the response, the EC50, lay at 57 ± 23 µM and the “effect … (inhibition / activation)” value was “activated”.
As to `CCCCCCCCCC(=O)CC(=O)N[C@@H]1CCSC1=O` [compound 64, 3-oxoC12-D-HCTL], on RhlI [2], it took 127 ± 70 µM to reach half-maximal inhibition (IC50) and the “effect … (inhibition / activation)” value is listed as “inhibited”.
For the compound `N[C@H]1CCOC1=O` [compound 71, L-HSL], at RhlI [2], the “effect … (inhibition / activation)” value was “None of these compounds or combinations had any effect on RhlI activity”.
In the case of `N[C@@H]1CCOC1=O` [compound 72, D-HSL], the “effect … (inhibition / activation)” value on RhlI [2] is “None of these compounds or combinations had any effect on RhlI activity”.
Take `N[C@H]1CCSC1=O` [compound 73, L-HCTL]: the “effect … (inhibition / activation)” value at RhlI [2] is “None of these compounds or combinations had any effect on RhlI activity”.
As to `N[C@@H]1CCSC1=O` [compound 74, D-HCTL], the “effect … (inhibition / activation)” value at RhlI [2] was “None of these compounds or combinations had any effect on RhlI activity”.
The same measure, in the same setting: for `CCCC(=O)O` [compound 75, butyric acid] the value was “None of these compounds or combinations had any effect on RhlI activity”; for `CCCCCC(=O)O` [compound 76, hexanoic acid], “None of these compounds or combinations had any effect on RhlI activity”.
As for `CCCCCCCCCC(=O)O` [compound 78, decanoic acid], at RhlI [2], the “effect … (inhibition / activation)” value is reported as “None of these compounds or combinations had any effect on RhlI activity”.
On the same count and under the same terms, the entry for `CCCCCCCCCCCC(=O)O` [compound 79, dodecanoic acid] is “None of these compounds or combinations had any effect on RhlI activity”.
In the case of `CCCCSCCNC(=O)CCNC(=O)[C@H](O)C(C)(C)COP(=O)(O)OP(=O)(O)OC[C@H]1O[C@@H](n2cnc3c(N)ncnc32)[C@H](O)[C@@H]1OP(=O)(O)O` [compound 89, butyl-CoA], the “inhibition of RhlI” value at RhlI [3] (up to 1 mM) is listed as “not inhibiting”.
Compound `CCCCCCSCCNC(=O)CCNC(=O)[C@H](O)C(C)(C)COP(=O)(O)OP(=O)(O)OC[C@H]1O[C@@H](n2cnc3c(N)ncnc32)[C@H](O)[C@@H]1OP(=O)(O)O` [compound 90, hexyl-CoA] displayed an IC50 against RhlI [3] of 70 ± 10 µM.
Turning to `CCCCCCCCSCCNC(=O)CCNC(=O)[C@H](O)C(C)(C)COP(=O)(O)OP(=O)(O)OC[C@H]1O[C@@H](n2cnc3c(N)ncnc32)[C@H](O)[C@@H]1OP(=O)(O)O` [compound 91, octyl-CoA], the IC50 on RhlI [3] came to 5.1 ± 0.8 µM.
In the series with RhlI [3] (setting [5]), butyl-ACP [compound 85] came in with an IC50 of 9.9 ± 4 µM and a Ki of 15.9 ± 0.9 µM. Further, in the series with RhlI [3], the “effect of preincubation of RhlI with inhibitor on % inhibition or IC50” value is “did not significantly alter” and the inhibition mode result is “noncompetitive”. Further, the “IC50 with untagged RhlI compared with MBP-tagged enzyme” value with tag-free RhlI is “almost identical”.
Regarding butyryl-ACP [compound 80], the “Km with untagged RhlI compared with MBP-tagged enzyme” value in the series with tag-free RhlI was “almost identical”. For the same compound, the Km worked out at 7.3 ± 2.1 µM with RhlI [4] and 7 µM in the series with RhlI [4] (listed as C4-ACP). The kcat in the series with RhlI [4] turned out to be 0.0433 ± 0.005 s⁻¹.
Turning to decanoyl-ACP [compound 83], in the series with RhlI [4], the Km was 0.14 ± 0.04 µM and the kcat stood at 0.00633 ± 0.00017 s⁻¹.
In the series with RhlI [3] (setting [5]), decyl-ACP [compound 88] gave an IC50 of 0.1 ± 0.04 µM and a Ki of 4.8 ± 0.3 µM. Besides, in the series with RhlI [3], the inhibition mode entry is “noncompetitive”.
dodecanoyl-ACP [compound 84]: in the series with RhlI [4], the Km is 0.26 ± 0.03 µM and the kcat came to 0.01 ± 0.00017 s⁻¹. For the same compound, the Michaelis-Menten constant (Km) with RhlI [4] (listed as C12-ACP) was about 0.2 µM.
In the case of hexanoyl-ACP [compound 81], in the series with RhlI [4], the Km is 1.2 ± 0.2 µM and the kcat amounted to 0.0143 ± 0.00033 s⁻¹.
In the series with RhlI [3] (setting [5]), hexyl-ACP [compound 86] returned an IC50 of 0.7 ± 0.4 µM and a Ki of 10.6 ± 1.1 µM. Besides, in the series with RhlI [3], the inhibition mode result is “noncompetitive”.
For the compound “holo-ACP: holo acyl carrier protein, product of the RhlI reaction”, the “inhibition of RhlI” value with RhlI [1] is recorded as “weak inhibitors”.
Take octanoyl-ACP [compound 82]: in the series with tag-free RhlI, the “Km with untagged RhlI compared with MBP-tagged enzyme” value is on record as “almost identical”. Also, in the series with RhlI [4], the Km is 0.4 ± 0.06 µM and the kcat was 0.01 ± 0.00033 s⁻¹.
In the case of octyl-ACP [compound 87], in the series with RhlI [3] (setting [5]), the IC50 was 0.06 ± 0.02 µM and the affinity corresponds to a Ki of 6.5 ± 0.7 µM. In addition, in the series with RhlI [3], the “effect of preincubation of RhlI with inhibitor on % inhibition or IC50” value is on record as “did not significantly alter” and the inhibition mode entry is on record as “noncompetitive”. The “IC50 with untagged RhlI compared with MBP-tagged enzyme” value in the series with tag-free RhlI is “almost identical”.
